Experimental data taken from patent US9718790B2, “Triazine derivative and pharmaceutical composition having an analgesic activity comprising the same” (SHIONOGI & CO., LTD., priority 2010, dated 2017).

target: human P2X3 receptor (Homo sapiens (Human), UniProt P56373); assay: Evaluation of human P2X3 receptor inhibitory activity (Fluo-3 calcium fluorescence, FDSS 3000, ATP stimulation); assay type: cell-based; settings: C6BU-1 cells stably expressing human P2X3 receptor;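 note: stimulus was 50 nM ATP with fluorescence followed for 3 min, and the response per well was peak post-ATP fluorescence divided by the reading at measurement start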
Sequence (P56373 whole entry): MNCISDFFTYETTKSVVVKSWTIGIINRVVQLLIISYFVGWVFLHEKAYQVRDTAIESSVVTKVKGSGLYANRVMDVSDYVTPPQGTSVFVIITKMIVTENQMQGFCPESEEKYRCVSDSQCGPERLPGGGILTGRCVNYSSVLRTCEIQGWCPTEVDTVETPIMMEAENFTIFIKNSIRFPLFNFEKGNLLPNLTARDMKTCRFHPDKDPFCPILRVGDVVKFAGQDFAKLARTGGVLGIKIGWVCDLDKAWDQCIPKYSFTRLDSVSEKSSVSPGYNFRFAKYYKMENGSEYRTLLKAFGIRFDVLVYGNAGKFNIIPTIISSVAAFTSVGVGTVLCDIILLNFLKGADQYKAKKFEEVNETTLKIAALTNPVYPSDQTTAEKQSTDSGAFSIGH

Row | Structure (SMILES) | IC50 [nM]
1 | Cc1ccc(Cn2c(=O)n(CCC(=O)O)c(=O)[nH]/c2=N\c2ccc(OC3CCC3)c(C)c2)cc1 [Compound I-1406] | 64
2 | Cc1nc2ccc(/N=c3\[nH]c(=O)n([C@H](C)[C@H](C)C(=O)O)c(=O)n3Cc3ccc(Cl)cc3)cc2s1 [Compound I-1467] | 12
3 | CC(C)Oc1ccc(/N=c2\[nH]c(=O)n(Cc3ncn[nH]3)c(=O)n2Cc2ccc(Cl)cc2)cc1F [Compound I-0679] | 32
4 | CC(C)Oc1ccc(/N=c2\[nH]c(=O)n([C@H](C)[C@H](C)C(=O)O)c(=O)n2Cc2ccc(Cl)cc2)cc1Cl [Compound I-1342] | 10
5 | Cc1cc(/N=c2\[nH]c(=O)n(Cc3cccc(C(=O)O)n3)c(=O)n2Cc2ccc(Cl)cc2)ccc1OC(C)C [Compound I-0801] | 10
6 | O=c1[nH]/c(=N\c2ccc3nc(C4CC4)sc3c2)n(Cc2ccc(Cl)cc2)c(=O)n1CC(CO)CO [Compound I-1983] | 10
7 | COC(=O)C[C@@H](C)Cn1c(=O)[nH]/c(=N\c2ccc(OC(C)C)c(C)c2)n(Cc2ccc(Cl)cc2)c1=O [Compound I-0761] | 15
8 | COC(=O)[C@H](C)[C@H](C)n1c(=O)[nH]/c(=N\c2ccc3oc(C)cc3c2)n(Cc2ccc(Cl)cc2)c1=O [Compound I-1323] | 33
9 | CCn1c(=O)[nH]/c(=N\c2ccc3oc(C)c(CC(=O)O)c3c2)n(Cc2ccc(Cl)cc2)c1=O [Compound I-2170] | 819
10 | COC(=O)[C@@H](C)Cn1c(=O)[nH]/c(=N\c2ccc(CC(C)C)c(F)c2)n(Cc2ccc(Cl)cc2)c1=O [Compound I-1254] | 45
11 | COC(=O)C(C)(C)Cn1c(=O)[nH]/c(=N\c2ccc(OC(C)C)c(CO)c2)n(Cc2ccc(Cl)cc2)c1=O [Compound I-1423] | 41
12 | CCn1c(=O)[nH]/c(=N\c2ccc(Oc3cncc(C(=O)O)c3)cc2)n(Cc2ccc(F)cc2)c1=O [Compound I-2112] | 47
13 | Cc1[nH]c2ccc(/N=c3\[nH]c(=O)n(CCCO)c(=O)n3Cc3ccc(Cl)cc3)cc2c1C [Compound I-1949] | 5
14 | C[C@@H](Cn1c(=O)[nH]/c(=N\c2cccc(C(F)(F)F)c2)n(Cc2ccc(Cl)cc2)c1=O)C(=O)O [Compound I-0628] | 61
15 | Cc1cc(/N=c2\[nH]c(=O)n([C@H]3C[C@@H](C(=O)O)N(C(=O)OC(C)(C)C)C3)c(=O)n2Cc2ccc(Cl)cc2)ccc1OC(C)C [Compound I-0708] | 966
16 | CCOC(=O)c1cnc(Oc2ccc(/N=c3\[nH]c(=O)n(CC)c(=O)n3Cc3ccc(Cl)cc3)cc2)o1 [Compound I-2187] | 44
17 | CCn1c(=O)[nH]/c(=N\c2ccc(Oc3ccnc(NC(C)=O)c3)cc2)n(Cc2ccc(Cl)cc2)c1=O [Compound I-2216] | 5
18 | Cc1cc2cc(/N=c3\[nH]c(=O)n(CCCO)c(=O)n3Cc3ccc(Cl)cc3)ccc2o1 [Compound I-2027] | 17
19 | CCCn1c(=O)[nH]/c(=N\c2ccc(Oc3ccc(C(=O)OC)nc3)cc2)n(Cc2ccc(Cl)cc2)c1=O [Compound I-2157] | 1
20 | CNC(=NC#N)NCCn1c(=O)[nH]/c(=N\c2ccc(OC(C)C)c(F)c2)n(Cc2ccc(Cl)cc2)c1=O [Compound I-0653, 1-(4-chlorobenzyl)-6-(3-fluoro-4-isopropoxyphenylimino)-3-(4-cyanoimino-4-methylamino-3-azabutyl)-1,3,5-triazinane-2,4-dion] | 37
21 | O=c1[nH]/c(=N\c2ccc3nc(C(F)(F)F)sc3c2)n(Cc2ccc(Cl)cc2)c(=O)n1C[C@H](O)CO [Compound I-2168] | 57
22 | Cc1ccc(Cn2c(=O)n(CCC(=O)O)c(=O)[nH]/c2=N\c2ccc(Oc3cccnc3)cc2)cc1 [Compound I-1227] | 30
23 | COc1cc(/N=c2\[nH]c(=O)n(CC(C)(C)C(=O)O)c(=O)n2Cc2ccc(Cl)cc2)ccc1OC(C)C [Compound I-1265] | 22
24 | CNC(=O)CCn1c(=O)[nH]/c(=N\c2ccc(OC3CCC3)cc2)n(Cc2ccc(Cl)cc2)c1=O [Compound I-1913] | 19
25 | CCn1c(=O)[nH]/c(=N\c2ccc(Oc3cccc(C(=O)OC)c3)cc2)n(Cc2ccc(C)cc2)c1=O [Compound I-2028] | 13

same assay, conditions: C6BU-1 cells stably expressing human P2X3 receptor, Fluo-3 fluorescence, FDSS 3000

Row | Structure (SMILES) | IC50 [nM]
26 | Cc1cc(Oc2ccc(/N=c3\[nH]c(=O)n(CCCO)c(=O)n3Cc3ccc(Cl)cc3)cc2)ccn1 [Compound I-1599] | 5
27 | O=C(NCCO)c1cc(Oc2ccc(/N=c3\[nH]c(=O)[nH]c(=O)n3Cc3ccc(Cl)cc3)cc2)ccn1 [Compound I-1897] | 24
28 | CCc1nc2ccc(/N=c3\[nH]c(=O)n(CC4(C(=O)O)CC4)c(=O)n3Cc3ccc(C)cc3)cc2s1 [Compound I-1556] | 11
29 | CCC(CC)Oc1ccc(/N=c2\[nH]c(=O)n(C[C@H](C)C(=O)OC)c(=O)n2Cc2ccc(C)cc2)cc1 [Compound I-1048] | 38
30 | COc1ccc(Oc2ccc(/N=c3\[nH]c(=O)n(C[C@H](O)CO)c(=O)n3Cc3ccc(Cl)cc3)cc2)cn1 [Compound I-1734] | 5
31 | O=C(O)c1cc(Oc2ccc(/N=c3\[nH]c(=O)[nH]c(=O)n3Cc3ccc(Cl)cc3)cc2)ccn1 [Compound I-1883] | 7
32 | COC(=O)CN1CCC(n2c(=O)[nH]/c(=N\c3ccc(OC(C)C)c(C)c3)n(Cc3ccc(Cl)cc3)c2=O)CC1 [Compound I-1639] | 14
33 | O=c1[nH]/c(=N\c2ccc(Oc3cncc(F)c3)cc2)n(Cc2ccc(Cl)cc2)c(=O)n1CCCO [Compound I-1596] | 4
34 | O=c1[nH]/c(=N\c2ccc(Oc3ccnc(O)c3)cc2)n(Cc2ccc(Cl)cc2)c(=O)n1CCCO [Compound I-1713] | 3
35 | COC(=O)[C@@H](C)Cn1c(=O)[nH]/c(=N\c2ccc(C=C(C)C)c(Cl)c2)n(Cc2ccc(Cl)cc2)c1=O [Compound I-0955] | 28
36 | Cc1[nH]c2ccc(/N=c3\[nH]c(=O)n([C@@H](C)[C@@H](C)C(=O)O)c(=O)n3Cc3ccc(Cl)cc3)cc2c1C [Compound I-1771] | 14
37 | CCOc1ccc(/N=c2\[nH]c(=O)n(C[C@H](O)CO)c(=O)n2Cc2ccc(Cl)cc2)cc1Cl [Compound I-1907] | 8
38 | CCn1c(=O)[nH]/c(=N\c2ccc(Oc3cccc(C(=O)O)c3)cc2)n(Cc2ccc(Cl)cc2)c1=O [Compound I-1881] | 6
39 | Cc1ccc(Cn2c(=O)n(C[C@H](C)C(=O)O)c(=O)[nH]/c2=N\c2ccc(Oc3ccncc3)cc2)cc1 [Compound I-1122] | 8
40 | CCCc1cc2cc(/N=c3\[nH]c(=O)n([C@@H](C)[C@@H](C)C(=O)OC)c(=O)n3Cc3ccc(Cl)cc3)ccc2o1 [Compound I-1817] | 52

same assay, conditions: human P2X3 receptor, Test Example 1

Row | Structure (SMILES) | IC50 [nM]
41 | O=c1[nH]/c(=N\c2ccc(Oc3nccs3)cc2)n(Cc2ccc(F)cc2)c(=O)n1CCCO [Compound I-2507] | 35
42 | COC(=O)CCn1c(=O)[nH]/c(=N\c2ccc(Oc3cccc(C(N)=O)n3)cc2)n(Cc2ccc(Cl)cc2)c1=O [Compound I-2684] | 2
43 | CCn1c(=O)[nH]/c(=N\c2ccc(Oc3cccc(CCC(=O)O)c3)cc2)n(Cc2ccc(Cl)cc2)c1=O [Compound I-2232] | 13
44 | CCn1c(=O)[nH]/c(=N\c2ccc(Oc3cc(F)cc(C(N)=O)c3)cc2)n(Cc2ccc(Cl)cc2)c1=O [Compound I-2233] | 2
45 | CNC(=O)Cn1c(=O)[nH]/c(=N\c2ccc(Oc3ncc(C)s3)cc2)n(Cc2ccc(Cl)cc2)c1=O [Compound I-2648] | 14
46 | Cc1nsc(Oc2ccc(/N=c3\[nH]c(=O)n(C[C@H](O)CO)c(=O)n3Cc3ccc(Cl)cc3)cc2)n1 [Compound I-2518] | 4
47 | CCn1c(=O)[nH]/c(=N\c2ccc(Oc3nccc(C(=O)O)n3)cc2)n(Cc2ccc(Cl)cc2)c1=O [Compound I-2319] | 17
48 | Cc1ccc(Cn2c(=O)n(C)c(=O)[nH]/c2=N\c2ccc(Oc3cc(C(=O)O)ncn3)cc2)cc1 [Compound I-2445] | 13
49 | CNC(=O)CCn1c(=O)[nH]/c(=N\c2ccc3nc(C)sc3c2)n(Cc2ccc(Cl)cc2)c1=O [Compound I-1543] | 6
50 | CCn1c(=O)[nH]/c(=N\c2ccc(Oc3cccc(C(=O)O)c3)cc2)n(C[C@H]2CC[C@H](C)CC2)c1=O [Compound I-2354] | 3
51 | CC[C@@H](Cn1c(=O)[nH]/c(=N\c2ccc(OC(C)C)c(C)c2)n(Cc2ccc(C)cc2)c1=O)C(=O)OC [Compound I-0884] | 16
52 | CCn1c(=O)[nH]/c(=N\c2ccc(O[C@@H]3C[C@@H](C(=O)OC)N(C(=O)OC(C)(C)C)C3)cc2)n(Cc2ccc(Cl)cc2)c1=O [Compound I-2265] | 299
53 | N#Cc1ccc(Oc2ccc(/N=c3\[nH]c(=O)n(CCO)c(=O)n3Cc3ccc(Cl)cc3)cc2)cc1 [Compound I-2545] | 7
54 | CCc1oc2ccc(/N=c3\[nH]c(=O)n(CCC(=O)O)c(=O)n3Cc3ccc(Cl)cc3)cc2c1C [Compound I-1507] | 15
55 | CCn1c(=O)[nH]/c(=N\c2ccc(Oc3ccc(C#N)cn3)cc2)n(Cc2ccc(C)cc2)c1=O [Compound I-2395] | 4
56 | CNC(=O)[C@@H](C)n1c(=O)[nH]/c(=N\c2ccc(Oc3ccon3)cc2)n(Cc2ccc(Cl)cc2)c1=O [Compound I-2534] | 105
57 | CCn1c(=O)[nH]/c(=N\c2ccc(Oc3ccnc(C(=O)OC)c3)cc2)n(Cc2ccc(F)cc2)c1=O [Compound I-2359] | 26
58 | NC(=O)c1ccc(Oc2ccc(/N=c3\[nH]c(=O)n(CCO)c(=O)n3Cc3ccc(Cl)cc3)cc2)cc1 [Compound I-2559] | 8
59 | CCOC(=O)Cn1c(=O)[nH]/c(=N\c2ccc(Oc3cnsn3)cc2)n(Cc2ccc(Cl)cc2)c1=O [Compound I-2629] | 6
60 | C[C@H](Cn1c(=O)[nH]/c(=N\c2ccc(N3CCCCC3)cc2)n(Cc2ccc(Cl)cc2)c1=O)C(=O)O [Compound I-1486] | 43
61 | C=Cc1ccc(Cn2c(=O)n(C[C@H](C)C(=O)OC)c(=O)[nH]/c2=N\c2ccc(OC(C)C)c(C)c2)cc1 [Compound I-0892, (S)-1-(4-vinylbenzyl)-6-(3-mehyl-4-isopropoxyphenylimino)-3-(2-methoxycarbonylpropyl)-1,3,5-triazinane-2,4-dion] | 18
62 | CCn1c(=O)[nH]/c(=N\c2ccc(Oc3ncc(C(=O)O)s3)cc2)n(Cc2ccc(F)cc2)c1=O [Compound I-2567] | 38
